Data from the NIST ThermoML archive (doi:10.1016/j.jct.2017.02.023).
± gives the expanded uncertainty stated by the source.

Key:
[1] = xn = mol fraction of the nth substance listed; details: 81.5 kPa, Liquid, Vibrating tube method
[2] = refractive index (Na D-line) (dimensionless); xn = mol fraction of the nth substance listed; details: 81.5 kPa, Liquid, Standard Abbe refractometry

CNC1CCCCC1 [N-methylcyclohexylamine] + CCCCCCC(C)O
Details | mass density, 298.15 K [kg/m3] | mass density, 308.15 K [kg/m3] | mass density, 318.15 K [kg/m3] | mass density, 328.15 K [kg/m3] | refractive index, 298.15 K | refractive index, 308.15 K | refractive index, 318.15 K | refractive index, 328.15 K
[1], x2 = 0 | 865.2 ± 1.6 | 856.57 ± 1.6 | 847.67 ± 1.6 | 838.68 ± 1.6 | – | – | – | –
[1], x2 = 0.0727 | 861.37 ± 1.6 | 852.86 ± 1.6 | 844.07 ± 1.6 | 835.18 ± 1.6 | – | – | – | –
[1], x2 = 0.148 | 857.59 ± 1.6 | 849.18 ± 1.6 | 840.45 ± 1.6 | 831.62 ± 1.6 | – | – | – | –
[1], x2 = 0.2246 | 853.95 ± 1.6 | 845.6 ± 1.6 | 836.92 ± 1.6 | 828.14 ± 1.6 | – | – | – | –
[1], x2 = 0.3025 | 850.34 ± 1.6 | 842.06 ± 1.6 | 833.44 ± 1.6 | 824.7 ± 1.6 | – | – | – | –
[1], x2 = 0.3826 | 846.62 ± 1.6 | 838.42 ± 1.6 | 829.86 ± 1.6 | 821.17 ± 1.6 | – | – | – | –
[1], x2 = 0.4636 | 842.77 ± 1.6 | 834.65 ± 1.6 | 826.15 ± 1.6 | 817.53 ± 1.6 | – | – | – | –
[1], x2 = 0.5484 | 838.61 ± 1.6 | 830.58 ± 1.6 | 822.16 ± 1.6 | 813.61 ± 1.6 | – | – | – | –
[1], x2 = 0.6332 | 834.36 ± 1.6 | 826.43 ± 1.6 | 818.08 ± 1.6 | 809.6 ± 1.6 | – | – | – | –
[1], x2 = 0.7205 | 829.99 ± 1.6 | 822.17 ± 1.6 | 813.9 ± 1.6 | 805.49 ± 1.6 | – | – | – | –
[1], x2 = 0.8128 | 825.54 ± 1.6 | 817.82 ± 1.6 | 809.62 ± 1.6 | 801.27 ± 1.6 | – | – | – | –
[1], x2 = 0.9052 | 821.3 ± 1.6 | 813.66 ± 1.6 | 805.52 ± 1.6 | 797.23 ± 1.6 | – | – | – | –
[2], x2 = 0 | – | – | – | – | 1.45306 ± 0.0016 | 1.44812 ± 0.0016 | 1.4431 ± 0.0016 | 1.43809 ± 0.0016
[2], x2 = 0.0727 | – | – | – | – | 1.45123 ± 0.0016 | 1.44643 ± 0.0016 | 1.44156 ± 0.0016 | 1.43676 ± 0.0016
[2], x2 = 0.148 | – | – | – | – | 1.44931 ± 0.0016 | 1.44459 ± 0.0016 | 1.43978 ± 0.0016 | 1.43507 ± 0.0016
[2], x2 = 0.2246 | – | – | – | – | 1.44739 ± 0.0016 | 1.44272 ± 0.0016 | 1.43794 ± 0.0016 | 1.43327 ± 0.0016
[2], x2 = 0.3025 | – | – | – | – | 1.44545 ± 0.0016 | 1.44084 ± 0.0016 | 1.43612 ± 0.0016 | 1.43148 ± 0.0016
[2], x2 = 0.3826 | – | – | – | – | 1.44348 ± 0.0016 | 1.43892 ± 0.0016 | 1.43425 ± 0.0016 | 1.42963 ± 0.0016
[2], x2 = 0.4636 | – | – | – | – | 1.44143 ± 0.0016 | 1.43692 ± 0.0016 | 1.43233 ± 0.0016 | 1.42778 ± 0.0016
[2], x2 = 0.5484 | – | – | – | – | 1.43898 ± 0.0016 | 1.43456 ± 0.0016 | 1.43003 ± 0.0016 | 1.42554 ± 0.0016
[2], x2 = 0.6332 | – | – | – | – | 1.43641 ± 0.0016 | 1.43207 ± 0.0016 | 1.42763 ± 0.0016 | 1.42323 ± 0.0016
[2], x2 = 0.7205 | – | – | – | – | 1.4337 ± 0.0016 | 1.42942 ± 0.0016 | 1.42503 ± 0.0016 | 1.42073 ± 0.0016
[2], x2 = 0.8128 | – | – | – | – | 1.43079 ± 0.0016 | 1.42658 ± 0.0016 | 1.42227 ± 0.0016 | 1.41802 ± 0.0016
[2], x2 = 0.9052 | – | – | – | – | 1.42779 ± 0.0016 | 1.42366 ± 0.0016 | 1.41941 ± 0.0016 | 1.41523 ± 0.0016

CNC1CCCCC1 [N-methylcyclohexylamine] + CCCC(C)O
Details | mass density, 298.15 K [kg/m3] | mass density, 308.15 K [kg/m3] | mass density, 318.15 K [kg/m3] | mass density, 328.15 K [kg/m3] | refractive index, 298.15 K | refractive index, 308.15 K | refractive index, 318.15 K | refractive index, 328.15 K
[1], x2 = 0 | 865.2 ± 1.6 | 856.57 ± 1.6 | 847.67 ± 1.6 | 838.68 ± 1.6 | – | – | – | –
[1], x2 = 0.1044 | 861.35 ± 1.6 | 852.83 ± 1.6 | 844.04 ± 1.6 | 835.12 ± 1.6 | – | – | – | –
[1], x2 = 0.2039 | 857.57 ± 1.6 | 849.03 ± 1.6 | 840.23 ± 1.6 | 831.28 ± 1.6 | – | – | – | –
[1], x2 = 0.3 | 853.62 ± 1.6 | 845.09 ± 1.6 | 836.29 ± 1.6 | 827.28 ± 1.6 | – | – | – | –
[1], x2 = 0.391 | 849.43 ± 1.6 | 840.92 ± 1.6 | 832.15 ± 1.6 | 823.1 ± 1.6 | – | – | – | –
[1], x2 = 0.4776 | 844.86 ± 1.6 | 836.35 ± 1.6 | 827.59 ± 1.6 | 818.52 ± 1.6 | – | – | – | –
[1], x2 = 0.5621 | 839.71 ± 1.6 | 831.21 ± 1.6 | 822.49 ± 1.6 | 813.38 ± 1.6 | – | – | – | –
[1], x2 = 0.6395 | 834.44 ± 1.6 | 825.96 ± 1.6 | 817.29 ± 1.6 | 808.15 ± 1.6 | – | – | – | –
[1], x2 = 0.7115 | 829.18 ± 1.6 | 820.72 ± 1.6 | 812.03 ± 1.6 | 802.91 ± 1.6 | – | – | – | –
[1], x2 = 0.7926 | 822.85 ± 1.6 | 814.43 ± 1.6 | 805.84 ± 1.6 | 796.73 ± 1.6 | – | – | – | –
[1], x2 = 0.8644 | 817.04 ± 1.6 | 808.68 ± 1.6 | 800.16 ± 1.6 | 791.09 ± 1.6 | – | – | – | –
[1], x2 = 0.9338 | 811.24 ± 1.6 | 802.9 ± 1.6 | 794.42 ± 1.6 | 785.33 ± 1.6 | – | – | – | –
[2], x2 = 0 | – | – | – | – | 1.45306 ± 0.0016 | 1.44812 ± 0.0016 | 1.4431 ± 0.0016 | 1.43809 ± 0.0016
[2], x2 = 0.1044 | – | – | – | – | 1.45003 ± 0.0016 | 1.44535 ± 0.0016 | 1.44061 ± 0.0016 | 1.4359 ± 0.0016
[2], x2 = 0.2039 | – | – | – | – | 1.44678 ± 0.0016 | 1.44217 ± 0.0016 | 1.43745 ± 0.0016 | 1.43273 ± 0.0016
[2], x2 = 0.3 | – | – | – | – | 1.44339 ± 0.0016 | 1.43884 ± 0.0016 | 1.43417 ± 0.0016 | 1.42945 ± 0.0016
[2], x2 = 0.391 | – | – | – | – | 1.43985 ± 0.0016 | 1.43539 ± 0.0016 | 1.43078 ± 0.0016 | 1.42612 ± 0.0016
[2], x2 = 0.4776 | – | – | – | – | 1.43608 ± 0.0016 | 1.43168 ± 0.0016 | 1.42715 ± 0.0016 | 1.42254 ± 0.0016
[2], x2 = 0.5621 | – | – | – | – | 1.43195 ± 0.0016 | 1.42759 ± 0.0016 | 1.42311 ± 0.0016 | 1.41857 ± 0.0016
[2], x2 = 0.6395 | – | – | – | – | 1.42779 ± 0.0016 | 1.42345 ± 0.0016 | 1.419 ± 0.0016 | 1.41449 ± 0.0016
[2], x2 = 0.7115 | – | – | – | – | 1.42361 ± 0.0016 | 1.41932 ± 0.0016 | 1.4149 ± 0.0016 | 1.41042 ± 0.0016
[2], x2 = 0.7926 | – | – | – | – | 1.41862 ± 0.0016 | 1.41442 ± 0.0016 | 1.41007 ± 0.0016 | 1.40562 ± 0.0016
[2], x2 = 0.8644 | – | – | – | – | 1.41398 ± 0.0016 | 1.40989 ± 0.0016 | 1.40561 ± 0.0016 | 1.40119 ± 0.0016
[2], x2 = 0.9338 | – | – | – | – | 1.40928 ± 0.0016 | 1.40524 ± 0.0016 | 1.40097 ± 0.0016 | 1.39653 ± 0.0016
